Literature values as cited in patent publication US20260027125A1, “AN ANTIBACTERIAL PARENTERAL FORMULATION AND METHODS THEREOF” (BUGWORKS RESEARCH INDIA PVT. LTD., priority 2022, published 2026).

Details: counter ion selected for salt screening; cited from earlier work

O=C(O)CC(O)C(=O)O (stereo not shown) [malic acid]
pKa (second value): 3.4, 5.11
